Data on 13 compounds can be found in ChEMBL document CHEMBL4477239 (Bioorg Med Chem, 2016).

One series in a line: in vitro. The following applies: human, Caco-2.
Series [1] can be described thus: Intrinsic clearance in rat liver microsomes assessed per mg of protein at 1 uM preincubated for 5 mins followed by NADPH addition measured after 5 to 30 mins by LC-MS/MS analysis. The format is ADME, Microsome. Particulars: read-out: CLH. A general note: Liver microsomes are vesicles of endoplasmic reticulum, rich in cytochrome P450 enzymes; call rule not given here.
A further series concerns the target Cytochrome P450 2C9 (Homo sapiens, UniProt P11712). Put plainly: Inhibition of CYP2C9 in human liver microsomes at 10 uM using sulfaphenazole as […] preincubated for 5 mins followed by NADPH addition measured after 20 mins by LC-MS/MS analysis. The format is ADME.
Series [2] addresses T1, Cytochrome P450 2D6 (Homo sapiens, UniProt P10635). Put plainly: Time-dependent inhibition of CYP2D6 in human liver microsomes at 10 uM using paroxetine as […] preincubated with compound followed by NADPH addition by LC-MS/MS analysis. The format is ADME.
A further series has as its system NCI-H1993. Put plainly: Cytotoxicity against human NCI-H1993 cells assessed as growth inhibition after 72 hrs by CCK-8 assay. The following applies: NCI-H1993, 72 h.
Series [3] concerns the target T2, Cytochrome P450 1A2 (Homo sapiens, UniProt P05177).
T2 sequence (P05177 whole entry): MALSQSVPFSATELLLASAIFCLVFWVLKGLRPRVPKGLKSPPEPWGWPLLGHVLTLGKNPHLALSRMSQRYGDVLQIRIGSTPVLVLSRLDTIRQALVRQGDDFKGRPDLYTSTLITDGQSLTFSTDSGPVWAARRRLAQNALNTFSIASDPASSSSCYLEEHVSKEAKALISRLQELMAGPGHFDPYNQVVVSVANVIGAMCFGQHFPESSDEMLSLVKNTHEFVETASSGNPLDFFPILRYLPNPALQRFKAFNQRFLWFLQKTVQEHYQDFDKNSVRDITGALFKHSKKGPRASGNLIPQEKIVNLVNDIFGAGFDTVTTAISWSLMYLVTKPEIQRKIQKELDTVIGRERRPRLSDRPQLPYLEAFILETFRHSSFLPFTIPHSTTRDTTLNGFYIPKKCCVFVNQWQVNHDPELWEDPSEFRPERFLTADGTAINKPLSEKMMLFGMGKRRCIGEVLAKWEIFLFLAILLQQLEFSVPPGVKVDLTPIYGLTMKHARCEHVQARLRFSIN
Put plainly: Time-dependent inhibition of CYP1A2 in human liver microsomes at 10 uM using furafylline as […] preincubated with compound followed by NADPH addition by LC-MS/MS analysis. The format is ADME.

In series [4] the target is Hepatocyte growth factor receptor (Homo sapiens, UniProt P08581).
Description: Inhibition of c-Met kinase (unknown origin) assessed as decrease in phosphorylation of TK substrate-biotin peptide preincubated for 5 to 10 mins followed by ATP addition measured after 30 mins by HTRF assay
Series [5] concerns the target T3, Cytochrome P450 3A4 (Homo sapiens, UniProt P08684). Put plainly: Time-dependent inhibition of CYP3A4 in human liver microsomes at 10 uM using troleandomycin as […] preincubated with compound followed by NADPH addition by LC-MS/MS analysis. The format is ADME.
Series [6] in a line: Intrinsic clearance in human liver microsomes assessed per mg of protein at 1 uM preincubated for 5 mins followed by NADPH addition measured after 5 to 30 mins by LC-MS/MS analysis. The format is ADME, Microsome. The following applies: read-out: CLH.
Another series has as its target Cytochrome P450 2C19 (Homo sapiens, UniProt P33261). Put plainly: Inhibition of CYP2C19 in human liver microsomes at 10 uM using tranylcypromine as […] preincubated for 5 mins followed by NADPH addition measured after 20 mins by LC-MS/MS analysis. The format is ADME.
Series [7] addresses T1, Cytochrome P450 2D6. Put plainly: Inhibition of CYP2D6 in human liver microsomes at 10 uM using quinidine as […] preincubated for 5 mins followed by NADPH addition measured after 20 mins by LC-MS/MS analysis. The format is ADME.
For series [8], the target named is T2, Cytochrome P450 1A2. Put plainly: Inhibition of CYP1A2 in human liver microsomes at 10 uM using naphthoflavone as […] preincubated for 5 mins followed by NADPH addition measured after 20 mins by LC-MS/MS analysis. The format is ADME.
In series [9] the target is T3, Cytochrome P450 3A4. Put plainly: Inhibition of CYP3A4 in human liver microsomes at 10 uM using ketoconazole as […] preincubated for 5 mins followed by NADPH addition measured after 20 mins by LC-MS/MS analysis. The format is ADME.
Series [10] is described as follows: Apparent permeability from basolateral to apical side in Caco2 cells at 1 to 10 uM incubated for 90 mins by LC-MS/MS analysis. The format is ADME, cell-based. The following applies: human, Caco-2. On the technique in general: Caco-2 cells form a polarised layer with tight junctions and transporters.
A short description of series [11]: Efflux ratio of permeability from basolateral to apical side over apical to basolateral side in Caco2 cells at 1 to 10 uM incubated for 90 mins by LC-MS/MS analysis. The format is ADME, cell-based. The following applies: human, Caco-2.

T3 sequence (P08684 whole entry): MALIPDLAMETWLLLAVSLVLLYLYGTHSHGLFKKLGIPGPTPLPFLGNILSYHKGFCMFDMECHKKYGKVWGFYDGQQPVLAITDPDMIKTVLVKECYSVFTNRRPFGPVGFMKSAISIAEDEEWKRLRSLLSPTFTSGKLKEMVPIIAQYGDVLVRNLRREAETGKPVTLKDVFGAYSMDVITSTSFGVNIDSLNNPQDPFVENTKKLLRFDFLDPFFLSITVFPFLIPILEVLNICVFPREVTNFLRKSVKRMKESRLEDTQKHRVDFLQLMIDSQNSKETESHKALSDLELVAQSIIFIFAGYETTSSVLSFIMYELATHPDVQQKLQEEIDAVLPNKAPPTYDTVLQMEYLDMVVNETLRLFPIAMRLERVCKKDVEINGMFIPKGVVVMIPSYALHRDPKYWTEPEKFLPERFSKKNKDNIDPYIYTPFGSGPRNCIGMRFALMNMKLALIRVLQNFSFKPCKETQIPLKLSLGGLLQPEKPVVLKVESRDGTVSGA
Cytochrome P450 2C9, sequence (P11712 whole entry): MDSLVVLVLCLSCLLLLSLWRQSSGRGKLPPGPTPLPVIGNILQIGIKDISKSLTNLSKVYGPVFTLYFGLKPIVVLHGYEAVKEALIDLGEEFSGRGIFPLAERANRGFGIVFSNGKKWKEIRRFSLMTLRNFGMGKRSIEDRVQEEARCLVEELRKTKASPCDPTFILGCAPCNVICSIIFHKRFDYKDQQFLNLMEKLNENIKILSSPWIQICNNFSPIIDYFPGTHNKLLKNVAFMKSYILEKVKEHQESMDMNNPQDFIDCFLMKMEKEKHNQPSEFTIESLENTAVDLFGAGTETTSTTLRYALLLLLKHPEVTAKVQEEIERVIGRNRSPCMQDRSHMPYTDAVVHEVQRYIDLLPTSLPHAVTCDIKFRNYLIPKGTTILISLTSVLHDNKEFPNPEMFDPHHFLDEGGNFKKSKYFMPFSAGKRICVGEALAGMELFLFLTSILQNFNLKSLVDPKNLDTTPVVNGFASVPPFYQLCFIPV
Hepatocyte growth factor receptor, sequence (P08581 whole entry): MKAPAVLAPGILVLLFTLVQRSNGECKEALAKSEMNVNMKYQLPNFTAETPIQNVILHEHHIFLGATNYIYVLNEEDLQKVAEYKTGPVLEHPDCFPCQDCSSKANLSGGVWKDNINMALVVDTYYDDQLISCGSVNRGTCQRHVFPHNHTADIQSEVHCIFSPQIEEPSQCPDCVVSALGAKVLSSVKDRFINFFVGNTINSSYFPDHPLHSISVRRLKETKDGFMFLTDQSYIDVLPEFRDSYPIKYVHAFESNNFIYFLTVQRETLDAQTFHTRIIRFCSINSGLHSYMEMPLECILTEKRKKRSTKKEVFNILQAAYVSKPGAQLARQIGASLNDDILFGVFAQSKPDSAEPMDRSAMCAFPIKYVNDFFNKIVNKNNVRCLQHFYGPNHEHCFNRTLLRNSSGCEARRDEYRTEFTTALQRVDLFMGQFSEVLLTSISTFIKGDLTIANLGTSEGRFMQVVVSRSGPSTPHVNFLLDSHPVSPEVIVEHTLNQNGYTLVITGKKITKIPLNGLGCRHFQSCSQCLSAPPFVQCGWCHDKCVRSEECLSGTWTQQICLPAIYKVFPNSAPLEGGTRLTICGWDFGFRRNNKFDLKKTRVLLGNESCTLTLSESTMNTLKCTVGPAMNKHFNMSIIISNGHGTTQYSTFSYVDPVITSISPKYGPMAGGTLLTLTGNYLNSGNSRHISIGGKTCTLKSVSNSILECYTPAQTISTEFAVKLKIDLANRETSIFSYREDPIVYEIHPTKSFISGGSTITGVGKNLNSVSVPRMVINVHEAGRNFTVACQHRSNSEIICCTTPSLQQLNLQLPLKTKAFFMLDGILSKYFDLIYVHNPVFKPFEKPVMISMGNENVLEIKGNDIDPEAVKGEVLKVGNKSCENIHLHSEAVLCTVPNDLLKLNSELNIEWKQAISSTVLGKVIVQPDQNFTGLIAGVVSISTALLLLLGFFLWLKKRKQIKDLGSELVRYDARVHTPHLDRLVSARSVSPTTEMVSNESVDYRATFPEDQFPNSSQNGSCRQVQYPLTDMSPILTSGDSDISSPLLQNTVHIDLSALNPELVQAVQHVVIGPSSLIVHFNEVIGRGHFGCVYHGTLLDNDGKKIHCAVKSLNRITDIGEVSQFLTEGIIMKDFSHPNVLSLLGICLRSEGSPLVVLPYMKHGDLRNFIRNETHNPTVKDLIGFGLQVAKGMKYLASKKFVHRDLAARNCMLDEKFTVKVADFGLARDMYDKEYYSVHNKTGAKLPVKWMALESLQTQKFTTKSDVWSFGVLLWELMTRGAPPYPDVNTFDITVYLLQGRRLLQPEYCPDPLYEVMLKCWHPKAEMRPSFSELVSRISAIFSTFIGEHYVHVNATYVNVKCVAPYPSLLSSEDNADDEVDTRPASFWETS
Cytochrome P450 2C19, sequence (P33261 whole entry): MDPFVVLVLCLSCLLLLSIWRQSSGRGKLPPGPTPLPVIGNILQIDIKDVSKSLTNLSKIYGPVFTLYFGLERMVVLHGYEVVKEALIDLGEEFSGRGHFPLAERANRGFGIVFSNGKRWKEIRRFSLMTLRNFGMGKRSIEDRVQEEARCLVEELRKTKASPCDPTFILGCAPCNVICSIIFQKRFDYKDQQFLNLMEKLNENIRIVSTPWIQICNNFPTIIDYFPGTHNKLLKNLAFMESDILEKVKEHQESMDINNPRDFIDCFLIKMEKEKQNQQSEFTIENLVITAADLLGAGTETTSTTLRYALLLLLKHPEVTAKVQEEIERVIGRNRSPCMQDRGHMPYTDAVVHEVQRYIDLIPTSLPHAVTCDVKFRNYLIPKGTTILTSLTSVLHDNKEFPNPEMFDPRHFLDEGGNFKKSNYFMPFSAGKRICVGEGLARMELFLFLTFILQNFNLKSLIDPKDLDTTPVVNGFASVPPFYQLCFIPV
T1 sequence (P10635 whole entry): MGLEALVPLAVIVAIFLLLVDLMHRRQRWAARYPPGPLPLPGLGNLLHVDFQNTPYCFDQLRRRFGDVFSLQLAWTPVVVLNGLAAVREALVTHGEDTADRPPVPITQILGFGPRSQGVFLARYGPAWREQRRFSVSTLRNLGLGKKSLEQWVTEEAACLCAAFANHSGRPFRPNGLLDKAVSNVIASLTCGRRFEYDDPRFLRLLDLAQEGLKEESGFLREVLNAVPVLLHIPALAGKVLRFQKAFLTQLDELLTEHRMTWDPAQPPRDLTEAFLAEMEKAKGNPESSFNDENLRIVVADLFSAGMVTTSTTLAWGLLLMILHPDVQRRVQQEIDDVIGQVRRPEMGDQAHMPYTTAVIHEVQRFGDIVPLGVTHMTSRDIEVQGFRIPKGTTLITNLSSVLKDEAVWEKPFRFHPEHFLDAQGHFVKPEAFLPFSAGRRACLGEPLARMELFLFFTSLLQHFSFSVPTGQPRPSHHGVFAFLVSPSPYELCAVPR
Description for in vitro: Apparent permeability from apical to basolateral side in Caco2 cells at 1 to 10 uM incubated for 90 mins by LC-MS/MS analysis

`O=C1OC2(c3ccc([O-])cc3Oc3cc([O-])ccc32)c2ccccc21.[Na+].[Na+]`: the apical-to-basolateral permeability (Papp A→B) (usually how fast a substance crosses the layer from the apical side) at 1.5 h, 10 µM in the series “in vitro” is 2.72 ×10⁻⁶ cm/s.
As to `CC(c1c(F)cc2ncccc2c1F)n1cnc2ncc(-c3cnn(CCO)c3)nc21` (stereo unspecified), the microsomal CLint at 1 µM in [1] is 10 µL/min/mg; in series [6], 2 µL/min/mg. Further, the “inhibition (INH)” value is reported as “Active” on Cytochrome P450 2C9, “Not Active” on Cytochrome P450 2D6 [2], “Not Active” on Cytochrome P450 1A2 [3] and “Not Active” at Cytochrome P450 3A4 [5]. The IC50 – broadly, the concentration that gives 50% inhibition – in the series with NCI-H1993 is 83.7 nM; in series [4] it was 1 nM.
For `CC(c1c(F)cc2ncccc2c1F)n1cnc2ncc(-c3cnc4ccccc4c3)nc21` (stereo unspecified), the microsomal CLint at 1 µM in series [1] amounted to 275 µL/min/mg; in [6], 51 µL/min/mg. Further, the “inhibition (INH)” value against Cytochrome P450 2C9, at Cytochrome P450 2C19, on Cytochrome P450 2D6 [2], at Cytochrome P450 1A2 [3], at Cytochrome P450 3A4 [5] and at Cytochrome P450 2D6 [7] was “Active” each time. The IC50 in the series on NCI-H1993 is 46.1 nM; in [4], 1.3 nM.
As for `CC(c1c(F)cc2ncccc2c1F)n1cnc2ncc(-c3cnn(C)c3)nc21` (stereo unspecified), the microsomal CLint at 1 µM came out at 63 µL/min/mg in series [1] and 11 µL/min/mg in series [6]. For the same compound, the “inhibition (INH)” value at Cytochrome P450 2C9 is “Active”; at Cytochrome P450 2C19, “Active”; on Cytochrome P450 2D6 [2] it was “Not Active”; on Cytochrome P450 1A2 [3], “Not Active”; on Cytochrome P450 3A4 [5], “Not Active”. The IC50 was 35.5 nM in the series with NCI-H1993 and 1 nM in series [4].
`CC(c1cc2cccnc2cc1F)n1cnc2ncc(-c3cnn(C)c3)nc21` (stereo unspecified) showed a Papp A→B at 1.5 h, 10 µM in the series “in vitro” of 39.3 ×10⁻⁶ cm/s. Further, the “inhibition (INH)” value against Cytochrome P450 1A2 [8], on Cytochrome P450 2C9, against Cytochrome P450 2C19, at Cytochrome P450 3A4 [9], on Cytochrome P450 2D6 [2] and at Cytochrome P450 1A2 [3] was “Not Active” in each case. Besides, the “inhibition (INH)” value at Cytochrome P450 3A4 [5] and on Cytochrome P450 2D6 [7] was “Not Active” each time. For the same compound, the values for the microsomal CLint at 1 µM in series [1] and in [6] were 18 µL/min/mg and 9 µL/min/mg, respectively. In series [10], the basolateral-to-apical permeability (Papp B→A) (as a rule, how fast a substance crosses the layer from the basolateral side) at 1.5 h turned out to be 40.1 ×10⁻⁶ cm/s. In addition, the IC50 with NCI-H1993 was 31.3 nM; in [4] it was 1.6 nM. In [11], the efflux ratio (in general, the permeability from basolateral to apical divided by that in the opposite direction, in the common usage) at 1.5 h was 1.02.
`CNC(=O)c1ccc(-c2cnc3ncn(C(C)c4cc5cccnc5cc4F)c3n2)cc1F` (stereo unspecified) registered a Papp A→B at 1.5 h, 10 µM in “in vitro” of 39.8 ×10⁻⁶ cm/s. Besides, the microsomal CLint at 1 µM stood at 85 µL/min/mg in series [1] and 16 µL/min/mg in series [6]. The “inhibition (INH)” value against Cytochrome P450 2C9, at Cytochrome P450 2C19, on Cytochrome P450 3A4 [9], on Cytochrome P450 3A4 [5] and on Cytochrome P450 2D6 [7] was “Active” each time. For the same compound, the basolateral-to-apical permeability (Papp B→A) at 1.5 h in [10] stood at 39.5 ×10⁻⁶ cm/s. For the same compound, the IC50 in the series with NCI-H1993 turned out to be 32.7 nM; in series [4], 2.3 nM. In addition, the efflux ratio at 1.5 h in [11] amounted to 0.99.
Take `COC(=O)c1ccc(-c2cnc3ncn(C(C)c4c(F)cc5ncccc5c4F)c3n2)cc1F` (stereo unspecified): the microsomal CLint at 1 µM in series [1] is 179 µL/min/mg; in series [6], 290 µL/min/mg. The “inhibition (INH)” value on Cytochrome P450 2C9 is given as “Active”; on Cytochrome P450 2D6 [2], “Not Active”; at Cytochrome P450 1A2 [3], “Not Active”; at Cytochrome P450 3A4 [5], “Not Active”. Besides, the figures for the IC50 (with NCI-H1993; in series [4]) were 29.4 nM and 4.9 nM, respectively.
In the series “in vitro”, `C[C@@H](c1cc2cccnc2cc1F)n1cnc2ncc(-c3ccc(C(N)=O)c(F)c3)nc21` displayed a Papp A→B at 1.5 h, 10 µM of 43.7 ×10⁻⁶ cm/s. Also, the microsomal CLint at 1 µM in [1] is 131 µL/min/mg; in series [6], 23 µL/min/mg. Also, the “inhibition (INH)” value against Cytochrome P450 2C9 was “Active”; against Cytochrome P450 3A4 [9] it was “Active”; at Cytochrome P450 3A4 [5] it was “Not Active”. In addition, the Papp B→A at 1.5 h in series [10] was determined as 47.9 ×10⁻⁶ cm/s. Besides, the half-maximal inhibitory concentration (IC50) came to 11.8 nM in the series on NCI-H1993 and 1.32 nM in [4]. Further, the efflux ratio at 1.5 h in [11] was 1.1.
With `CC(c1c(F)cc2ncccc2c1F)n1cnc2ncc(-c3ccncc3)nc21` (stereo unspecified), the values for the microsomal CLint at 1 µM in series [1] and in series [6] were 77 µL/min/mg and 14 µL/min/mg, respectively. Moreover, the “inhibition (INH)” value at Cytochrome P450 2C9 is given as “Active”; on Cytochrome P450 2C19, “Active”; at Cytochrome P450 3A4 [9], “Active”; at Cytochrome P450 2D6 [2] it was “Not Active”; at Cytochrome P450 1A2 [3], “Not Active”; on Cytochrome P450 3A4 [5], “Not Active”. Besides, the values for the IC50 (in the series with NCI-H1993; in series [4]) were 162 nM and 1.6 nM, respectively.
Take `COC(=O)c1ccc(-c2cnc3ncn(C(C)c4cc5cccnc5cc4F)c3n2)cc1F` (stereo unspecified): the microsomal CLint at 1 µM turned out to be 125 µL/min/mg in series [1] and 73 µL/min/mg in series [6]. The “inhibition (INH)” value against Cytochrome P450 2C9 was “Active”; on Cytochrome P450 2D6 [2] it was “Not Active”; at Cytochrome P450 1A2 [3], “Not Active”; on Cytochrome P450 3A4 [5] it was “Not Active”. For the same compound, the 50% inhibitory concentration (IC50) in the series with NCI-H1993 was 60.2 nM; in series [4], 2.9 nM.
As to `CC(c1cc2cccnc2cc1F)n1cnc2ncc(-c3ccc(C(N)=O)c(F)c3)nc21` (stereo unspecified), the Papp A→B at 1.5 h, 10 µM in the series “in vitro” is 82.3 ×10⁻⁶ cm/s. The microsomal CLint at 1 µM in [1] was 85 µL/min/mg; in series [6], 14 µL/min/mg. Besides, the “inhibition (INH)” value is on record as “Active” against Cytochrome P450 2C9, “Not Active” at Cytochrome P450 2D6 [2], “Not Active” on Cytochrome P450 1A2 [3] and “Not Active” on Cytochrome P450 3A4 [5]. In addition, in series [10], the Papp B→A at 1.5 h is 81.4 ×10⁻⁶ cm/s. The IC50 is 19.5 nM in the series on NCI-H1993 and 1.7 nM in series [4]. Moreover, in series [11], the efflux ratio at 1.5 h is 0.99.
Consider `CC(=O)O[C@H]1C(=O)[C@@]2(C)[C@H]([C@H](OC(=O)c3ccccc3)[C@]3(O)C[C@H](OC(=O)[C@H](O)[C@@H](NC(=O)c4ccccc4)c4ccccc4)C(C)=C1C3(C)C)[C@]1(OC(C)=O)CO[C@@H]1C[C@@H]2O` [PACLITAXEL], for which the Papp A→B at 1.5 h, 10 µM in “in vitro” amounted to 1.46 ×10⁻⁶ cm/s. For the same compound, the Papp B→A at 1.5 h in series [10] was 3.3 ×10⁻⁶ cm/s. For the same compound, the efflux ratio at 1.5 h in [11] worked out at 2.27.
In “in vitro”, `CC(C)NCC(O)COc1cccc2ccccc12` (stereo unspecified) [PROPRANOLOL] came in with a Papp A→B at 1.5 h, 10 µM of 21.5 ×10⁻⁶ cm/s.
